Assay results taken from patent US10829522B2, “Peptide inhibiting colonization by pathogenic bacteria, and colonization inhibitor including same” (OSAKA UNIVERSITY, priority 2016, dated 2020).
pKd: −log10 of the molar value.

Assays:
[1] = tested on: HB101 cof adhesion to Caco2 cells; experiment: ETEC adhesion inhibitory activity using Caco2 cells; format: cell-based, Escherichia coli; conditions: 1, 10, 100 μg/mL
Procedure: First, Caco2 cells were dispersed using Dulbecco's Modified Eagle's Medium (DMEM) containing 50 μg/mL gentamicin and 10% fetal bovine serum, the cell concentration was measured using a blood cell counting chamber and diluted to 3.0×10^5 cells/mL. Dilution liquid was added to a 6-well plate each in an amount of 500 μL, and culture was performed by allowing the plate to stand still in a CO2 incubator at 5% CO2 and 37° C. for 48 hours. The cultured Caco2 cells were washed with PBS twice. After washing, DMEM containing 100 μg/mL ampicillin and 1% D-mannose was filtrated by passing through a 0.22 μm filter, then, the solution was added each in an amount of 500 μL to each well.
Next, a small amount of the glycerol stock of HB101 cof was scraped off and added to LB medium containing 100 μg/mL ampicillin, and shaking culture was carried out overnight at 25° C. The culture liquid was suitably diluted and OD660 of the culture liquid was calculated using a turbidimeter. The culture liquid was serially diluted and CFU (colony forming unit) was measured. From the measured CFU, the concentration (cells/mL) of HB101 cof at OD660=1.0 was calculated. This calculated value was used to determine the concentration of HB101 cof later. […]
ETEC adhesion inhibitory activity was evaluated in the same manner as in Example 9 using CofJ^4-16-GCN4. […]

[2] = tested on: binding of CofJ and Trx-His-ΔN28-CofB; experiment: Pull down assay using a Ni column, inhibition of CofB/CofJ binding; parameters: species or system enterotoxigenic Escherichia coli (ETEC); conditions: SDS-PAGE
Text: To examine whether the CofJ^1-24-GCN4 inhibitory peptide is capable of inhibiting the binding of CofB and CofJ, it was confirmed in the in vitro experiment system by pull down assay using a Ni column. For experiments, ΔN28-CofB (Trx-His-ΔN28-CofB), CofJ, CofJ^1-24-GCN4, a CofJ^1-24 peptide and a peptide (CofJpepR) in which the amino acid sequence of the CofJ^1-24 peptide was randomized, with added thioredoxin tag (Trx) and His tag, were used. The sequence of CofJpepR is […] (SEQ ID NO: 22).
(§1) Solutions mixed so that the concentration of Trx-His-ΔN28-CofB was 1 μM and the concentration of CofJ^1-24-GCN4 was (0, 0.5, 1.0, 2.0, 5.0, 10.0 μM) were allowed to stand still on ice overnight. Further, CofJ was mixed so that the final concentration became 1 μM, and the mixtures were allowed to stand still on ice for 1 hour, to obtain experiment samples. Each sample was applied to a Ni column equilibrated with 20 mM Tris-HCl, 150 mM NaCl, pH 8.0, and the column was washed with 20 mM Tris-HCl, 150 mM NaCl, 15 mM Imidazole, pH 8.0. Thereafter, elution was performed with 20 mM Tris-HCl, 150 mM NaCl, 300 mM Imidazole, pH 8.0, and the eluted fraction was confirmed by SDS-PAGE.
Also for the CofJ^1-24 peptide and CofJpepR, the inhibition ability thereof was investigated by the same method. Specifically, solutions mixed so that the concentration of Trx-His-ΔN28-CofB was 1 μM and the concentration of the CofJ^1-24 peptide and CofJpepR was 1000 μM were allowed to stand still on ice overnight. Further, CofJ was mixed so that the final concentration became 1 μM, and the mixtures were allowed to stand still on ice for 1 hour, to obtain experiment samples. The pull down assay was performed in the same manner as described above. […] From this, it is considered that CofJ^1-24-GCN4 can inhibit the binding between CofB and CofJ by strongly binding with CofB by trimerizing.
In order to investigate whether the CofJ^4-16-GCN4 inhibitory peptide can inhibit the binding of CofB and CofJ, it was confirmed in the in vitro experimental system by a pull down assay using a Ni column. For the experiment, ΔN28-CofB (Trx-His-ΔN28-CofB), CofJ and CofJ^4-16-GCN4, with added thioredoxin tag (Trx) and His tag (His), were used.
as §1, with “CofJ^4-16-GCN4” for “CofJ^1-24-GCN4”, “Thereafter, elution was performed with 20 mM Tris-HCl, 150 mM NaCl, 300 mM Imidazole, pH 8.0, and the eluted fraction was confirmed by SDS-PAGE.” left out

[3] = target: ΔN28-CofB; experiment: Isothermal titration calorimetry, interaction with ΔN28-CofB; format: binding, enterotoxigenic Escherichia coli (ETEC); conditions: ITC; for pKd: 25° C., 20 mM Tris-HCl (pH 8.0), 150 mM NaCl, ΔN28-CofB in terms of trimer, read-out: dissociation constant Kd value; for binding affinity to ΔN28-CofB compared with the binding affinity between CofJ and ΔN28-CofB: stronger than CofJ
Procedure: The expression and purification methods were carried out according to past papers (Fukakusa, S, et al. Acta Cryst. 2012, D68, 1418-1429; Kawahara, K, et al. J. Mol. Biol, 2016, 428, 1209-1226).
Interaction analysis was performed using CofB, CofJ and ΔN24-CofJ prepared by the above methods. An isothermal titration calorimeter Microcal iTC 200 (manufactured by GE Healthcare) was used for analysis of the interaction between the secretory protein CofJ and ΔN28-CofB. A 0.59 mM CofJ solution was charged in a titration syringe and a 28.5 μM (in terms of trimer) ΔN28-CofB solution was charged in a measuring cell, respectively, and the interaction of them was evaluated by directly observing heat changes that occur upon dropping the CofJ solution into the ΔN28-CofB solution. Titration conditions were such that the initial dropping amount was 1 μL, the dropping amount at the second and subsequent times was 2 μL, and dropping was performed 20 times in total every 120 seconds. The measurement temperature was 25° C., and the solvent was 20 mM Tris-HCl (pH 8.0), 150 mM NaCl. An exothermic change was observed by dropping the CofJ solution, which converged to the same level as the heat of dilution as the titration progressed. As a result of analysis of the obtained data using an analysis software Origin (Microcal), binding of CofJ and ΔN28-CofB was observed. The dissociation constant Kd value of both was 0.2 μM.
Next, in order to investigate the contribution to binding to pili in the N-terminal region (1 to 24) of the secretory protein CofJ, analysis of the interaction between ΔN24-CofJ and ΔN28-CofB was carried out using an isothermal titration calorimeter Microcal iTC 200 (manufactured by GE Healthcare). A 0.59 mM ΔN24-CofJ solution was charged in a titration syringe and a 28.5 μM (in terms of trimer) ΔN28-CofB solution was charged in a measuring cell, respectively, and the interaction of them was evaluated by directly observing heat changes that occur upon dropping the ΔN24-CofJ solution into the ΔN28-CofB solution. No change in caloric value due to dropping of the ΔN24-CofJ solution was observed.
Furthermore, in order to investigate the contribution to binding to pili in the N-terminal region (1 to 24) of the secretory protein CofJ, analysis of the interaction between a synthetic peptide consisting of 24 amino acid residues at the N terminal of CofJ (CofJ^1-24 peptide) purchased from Scrum Co., Ltd. and ΔN28-CofB was carried out using an isothermal titration calorimeter Microcal iTC200 (manufactured by GE Healthcare) in the same manner as described above. A 2 mM CofJ^1-24 peptide solution was charged in a titration syringe and a 33.9 μM (in terms of trimer) ΔN28-CofB solution was charged in a measuring cell, respectively, and the interaction of them was evaluated by directly observing heat changes that occur upon dropping the CofJ^1-24 peptide solution into the ΔN28-CofB solution. An exothermic change was observed by dropping the CofJ^1-24 peptide solution, which converged to the same level as the heat of dilution as the titration progressed. As a result of analysis of the obtained data using an analysis software Origin, binding of the CofJ^1-24 peptide and ΔN28-CofB was observed. The dissociation constant Kd value of both was 4 μM.
Next, in order to investigate the binding specificity of the CofJ^1-24 peptide, analysis of the interaction between a synthetic random peptide (CofJpepR) purchased from Scrum Co., Ltd. and ΔN28-CofB was carried out using an isothermal titration calorimeter Microcal iTC 200 (manufactured by GE Healthcare). A 2 mM random peptide solution was charged in a titration syringe and a 28.5 μM (in terms of trimer) ΔN28-CofB solution was charged in a measuring cell, respectively, and the interaction of them was evaluated by directly observing heat changes that occur upon dropping the […] into the ΔN28-CofB solution. No change in caloric value due to dropping of the random peptide solution was observed. […]

[4] = peptide premixed at a concentration not lower than that of CofJ (1 μM), 0.5-10.0 μM tested
[5] = peptide 1000 μM (1000 times that of CofJ, 1 μM)

Substance	inhibition of colonization of HB101 cof to Caco2 cells [1]	inhibition of the binding of CofJ and Trx-His-ΔN28-CofB [2, 4]	pKd [3]	binding affinity to ΔN28-CofB compared with the binding affinity between CofJ and ΔN28-CofB [3]	inhibition of the binding of CofJ and Trx-His-ΔN28-CofB [2, 5]	binding to ΔN28-CofB (change in caloric value) ([3]; 28.5 μM ΔN28-CofB in cell)
CofJ^1-24-GCN4: GPLG, CofJ 1-24 sequence (SEQ ID NO: 1), linker TSGGG (SEQ ID NO: 9) and GCN4 sequence (SEQ ID NO: 6); expressed in E. coli	inhibits colonization of HB101 cof to Caco2 cells in concentration-dependent manner	strongly inhibited	7.40	about 5 times		
CofJ^4-16-GCN4: GPLG, SSEGGAFTVNMPK (SEQ ID NO: 23), linker TSGGG (SEQ ID NO: 9) and GCN4 sequence (SEQ ID NO: 6); expressed in E. coli	inhibits colonization of HB101 cof to Caco2 cells in concentration-dependent manner	strongly inhibited	7.10	about 2.5 times		
NPSGFDKSGSSTTRTPAMSVIVDE [CofJpepR, reference compound]					can not be inhibited at all	do not bind
SPSSSEGGAFTVNMPKTSTVDDIR [CofJ^1-24 peptide, reference compound]			5.40		hardly inhibited	
SSEGGAFTVNMPK [CofJ^4-16 peptide, reference compound]			5.40			
